Data published in US5015578A, “BMY-41950 antitumor antibiotic” (Bristol-Myers Squibb Company, priority 1990, dated 1991).
Values after ≈ are worked out from the molar mass of the structure shown.

Legend:
Solubility = format: physicochemical
[1] = test system: Enterococcus faecalis A20688; test: MIC vs. Enterococcus faecalis A20688, in vitro antimicrobial screening; format: cell-based; settings: read-out: MIC (Minimum Inhibitory Concentration)
[2] = test system: Staphylococcus aureus A9537; test: MIC vs. Staphylococcus aureus A9537, in vitro antimicrobial screening; format: cell-based; settings: read-out: MIC (Minimum Inhibitory Concentration)
[3] = test system: HCT-116 (human colon cancer cell clone); test: In vitro cytotoxicity, HCT-116 cells (crystal violet); format: cell-based; settings: 72 hours, 50% cell death or growth inhibition; for IC50: Homo sapiens, HCT-116, read-out: In Vitro Antitumor Activity IC50, HCT-116
Method: (§1) BMY-41950 was tested for in vitro cytotoxic activity against a murine and a human tumor cell line. In vivo it was tested for activity against a murine leukemia tumor model. In vitro, mitomycin C and cisplatin were used as the reference compounds, while etoposide (VP-16) was used as the in vivo reference.
(§2) B16-F10 (murine melanoma) and HCT-116 (human colon cancer cell clone) cells were cultured in Complete McCoys Media. The media consists of 420 ml McCoys 5A media plus 500 mg sodium bicarbonate in 6 ml water, 6.56 mg L-serine. 1.5 mg L-asparagine and 82.4 mg sodium pyruvate in 2 ml water. 6.25 ml essential amino acids (50X, Gibco), 3.0 ml non-essential amino acids (100X, Gibco), 3 ml L-glutamine (200MM), 3 ml MEM vitamins (Gibco), 6.25 ml penicillin/streptomycin (Gibco) and 50 ml of heat-inactivated defined fetal calf serum.
(§3) The two cell lines are harvested during logarithmic phase cell growth and 3600 cells in 150 microliter media were placed in each well of a 96 well microtiter plate. After 24 hours incubation at 37 degrees Celsius in a 95% air/5% carbon dioxide humidified incubator to allow the cells to attach to the plate, fifty microliters of sample/reference drug is added to 11 of 12 of the top row of wells while 50 microliters of media is added to the 12th. The drugs/media are serially diluted (4 fold dilutions) down the 8 wells of the plate. The cells in the presence of drug/media are then incubated for 72 hours. After fixing with 10% formalin, cells killed by the drug were washed off the plate while those surviving cells are stained with 0.0075% crystal violet. After drying, the stain is solubilized with 10% ethanol and 1% acetic acid, the developed plate quantitated on a Dynatech MR 600 plate reader and the IC50 values (drug concentration at which 50% cell death or growth inhibition occurs) calculated.

[4] = test system: B16-F10 (murine melanoma); test: In vitro cytotoxicity, B16-F10 cells (crystal violet); format: cell-based; settings: 72 hours, 50% cell death or growth inhibition; for IC50: Mus musculus, B16-F10, read-out: In Vitro Antitumor Activity IC50, B16-F10
Method: as §1, §2, §3

[5] = test system: lymphocytic leukemia P388 cells; test: In vivo activity in P388 murine leukemia model; parameters: species or system murine (female CDF1 mice); settings: days 1-5
Method: as §1
In vivo activity of BMY-41950 was determined in a murine leukemia tumor system. Female CDF1 mice were intraperitoneally inoculated with 0.5 ml of diluted ascitic fluid containing 10^6 lymphocytic leukemia P388 cells. Ten mice were untreated and the median survival time of this group was 10 days. Three groups of 4 mice each were treated with BMY-41950 on days 1, 2, 3, 4 and 5 post tumor implant. The drug was administered ip after being initially dissolved in DMSO, Tween 80 and buffered saline. […] Thus the % T/C (survival time of drug treated/survival time of untreated controls×100) was 130%. The criteria for antitumor activity in this murine tumor test is a % T/C of 125 or greater. Thus. BMY-41950 fulfilled the criteria for antitumor activity in the P388 murine leukemia antitumor model.

SMILES | Solubility in CHCl3-CH3OH (Solubility; CHCl3-CH3OH (2:1 v/v)) | Solubility in dimethylsulfoxide (DMSO) (Solubility; dimethylsulfoxide (DMSO)) | Solubility in tetrahydrofuran (THF) (Solubility; tetrahydrofuran (THF)) | MIC [1] | MIC [2] | IC50 [3] | IC50 [4] | % T/C (survival time of drug treated/survival time of untreated controls×100) ([5]; 2 mg/kg/day ip, criterion for activity 125 or greater) | median survival time ([5]; 2 mg/kg/day ip, untreated controls 10 days) | drug-induced toxicity / deaths ([5]; 18 and 6 mg/kg/day ip) | In Vitro Antitumor Activity IC50, HCT-116 [3] | In Vitro Antitumor Activity IC50, B16-F10 [4]
CNC1CC2OC(C)(C1OC)n1c3ccccc3c3c4c(c5c6ccccc6n2c5c31)C(=O)NC4=O (centres unmarked) [BMY-41950, 7-oxostaurosporine] | soluble | soluble | soluble | 12.5 µg/mL (≈ 26 µM) | 6.25 µg/mL (≈ 13 µM) | 0.24 µg/mL (≈ 0.499 µM) | 0.98 µg/mL (≈ 2.04 µM) | 130% | 13 days | suffered drug-induced toxicity and all mice died prior to day 7 |  | 
N.N.[Cl][Pt][Cl] [Cisplatin] |  |  |  |  |  |  |  |  |  |  | 15.6 µg/mL | 3.9 µg/mL
CO[C@@]12[C@H](COC(N)=O)C3=C(C(=O)C(C)=C(N)C3=O)N1C[C@@H]1N[C@@H]12 [Mitomycin C] |  |  |  |  |  | 0.98 µg/mL (≈ 2.93 µM) | 0.98 µg/mL (≈ 2.93 µM) |  |  |  |  | 
